Experimental data: ChEMBL document CHEMBL3039007, “Structure-based identification of OATP1B1/3 inhibitors” (Mol Pharmacol, 2013)

Experiments:
[1] = molecular target: T1, Solute carrier organic anion transporter family member 1B1 (Homo sapiens, UniProt Q9Y6L6); conditions: chinese hamster, cho, 10 µM
T1 sequence (Q9Y6L6 whole entry): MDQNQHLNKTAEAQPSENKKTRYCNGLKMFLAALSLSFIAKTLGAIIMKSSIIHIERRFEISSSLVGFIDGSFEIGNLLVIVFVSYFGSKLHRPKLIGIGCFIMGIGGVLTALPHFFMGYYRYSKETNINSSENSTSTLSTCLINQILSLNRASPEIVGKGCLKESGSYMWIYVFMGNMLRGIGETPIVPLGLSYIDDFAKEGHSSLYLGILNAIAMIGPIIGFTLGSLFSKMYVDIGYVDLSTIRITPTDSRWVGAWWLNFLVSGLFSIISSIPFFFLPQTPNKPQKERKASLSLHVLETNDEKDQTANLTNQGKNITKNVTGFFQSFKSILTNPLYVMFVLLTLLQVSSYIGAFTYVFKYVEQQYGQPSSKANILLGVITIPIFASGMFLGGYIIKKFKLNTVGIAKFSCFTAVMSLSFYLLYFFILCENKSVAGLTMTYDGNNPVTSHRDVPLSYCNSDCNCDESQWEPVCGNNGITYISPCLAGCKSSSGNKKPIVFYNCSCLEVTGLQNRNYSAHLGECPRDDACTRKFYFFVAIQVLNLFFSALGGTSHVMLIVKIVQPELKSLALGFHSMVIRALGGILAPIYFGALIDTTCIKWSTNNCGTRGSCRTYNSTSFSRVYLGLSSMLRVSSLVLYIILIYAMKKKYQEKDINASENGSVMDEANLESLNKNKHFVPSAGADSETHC

[2] = molecular target: T2, Solute carrier organic anion transporter family member 1B3 (Homo sapiens, UniProt Q9NPD5); conditions: chinese hamster, cho, 10 µM
T2 sequence (Q9NPD5 whole entry): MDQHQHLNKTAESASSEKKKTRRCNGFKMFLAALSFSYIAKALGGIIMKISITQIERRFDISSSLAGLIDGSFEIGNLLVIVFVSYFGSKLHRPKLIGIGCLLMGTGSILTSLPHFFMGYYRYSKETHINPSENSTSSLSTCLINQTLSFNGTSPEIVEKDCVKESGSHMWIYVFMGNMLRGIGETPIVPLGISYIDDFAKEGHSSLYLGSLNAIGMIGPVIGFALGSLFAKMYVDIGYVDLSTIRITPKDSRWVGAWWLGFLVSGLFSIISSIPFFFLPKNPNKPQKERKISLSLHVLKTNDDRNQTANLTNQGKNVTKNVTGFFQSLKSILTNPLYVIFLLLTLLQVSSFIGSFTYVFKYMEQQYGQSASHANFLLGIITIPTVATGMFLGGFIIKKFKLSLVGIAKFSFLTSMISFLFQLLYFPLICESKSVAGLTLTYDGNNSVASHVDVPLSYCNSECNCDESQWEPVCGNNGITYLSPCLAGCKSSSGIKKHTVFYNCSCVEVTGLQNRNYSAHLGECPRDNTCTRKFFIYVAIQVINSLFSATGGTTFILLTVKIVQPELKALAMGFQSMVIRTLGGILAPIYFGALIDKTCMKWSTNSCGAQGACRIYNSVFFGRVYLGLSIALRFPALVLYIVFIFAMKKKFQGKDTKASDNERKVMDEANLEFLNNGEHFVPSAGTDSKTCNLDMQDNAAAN

In the case of `CC(=O)O[C@]1(C)CC[C@@]23C[C@H]1C(C)(C)[C@@H]2CC[C@H]3C` [CEDRYL ACETATE], the residual activity [1] is reported as 134% and the residual activity [2] is reported as 116.5%.

Compound `CC(C)Nc1nc(Cl)nc(NC(C)C)n1` [PROPAZINE] has a residual activity [1] of 110.4% and a residual activity [2] of 91.55%.

Work on `CCCCSP(=O)(SCCCC)SCCCC` [S,S,S,-TRIBUTYLPHOSPHOROTRITHIOATE] yielded a residual activity [1] of 125.7% and a residual activity [2] of 111.8%.

For `COc1cc2c(cc1OC)[C@H](C)NCC2` [SALSOLIDINE], the residual activity [1] was 117.3% and the residual activity [2] was 93.8%.

Compound `OC[C@@H]1CCCN2CCCC[C@H]12` [LUPININE] has a residual activity [1] of 114.4% and a residual activity [2] of 90.27%.

Work on `COP(=O)(OC)OC(Br)C(Cl)(Cl)Br` (centres undefined) [NALED] yielded a residual activity [1] of 82.68% and a residual activity [2] of 110%.

In the case of `CN(C)CCC=C1c2ccccc2CCc2ccccc21.Cl` [AMITRIPTYLINE HYDROCHLORIDE], the residual activity [1] is reported as 53.22% and the residual activity [2] is reported as 80.45%.

`COC(=O)C[C@H]1C(C)(C)C(=O)[C@H]2CC3=C4CC(OC)O[C@@H](c5ccoc5)[C@@]4(C)CCC3[C@]1(C)C2=O` (some centres undefined) [16-DEOXOMEXICANOLIDE 16-METHYL ETHER] was tested, and the residual activity [1] was 53.47% and the residual activity [2] was 141.6%.

`NC[C@H](O)c1ccc(O)c(O)c1` [NOREPINEPHRINE] showed a residual activity [1] of 112.9% and a residual activity [2] of 102.3%.

`CN(C)[C@@H]1C(O)=C(C(N)=O)C(=O)[C@@]2(O)C(O)=C3C(=O)c4c(O)cccc4[C@@](C)(O)[C@H]3C[C@@H]12.Cl` [TETRACYCLINE HYDROCHLORIDE] was tested, and the residual activity [1] was 118.1% and the residual activity [2] was 97.72%.

For `C[C@@H]1CCC[C@H](C)N1NC(=O)c1ccc(Cl)c(S(N)(=O)=O)c1` [CLOPAMIDE], the residual activity [1] was 113.6% and the residual activity [2] was 107.3%.

With `C=C1C(N)CC2CC1C2(C)C` (stereo not drawn) [3-AMINO-beta-PINENE] the residual activity [1] was 92.27% and the residual activity [2] was 104.4%.

`COc1ccc(-c2oc3cc(O[C@@H]4O[C@H](CO)[C@@H](O)[C@H](O)[C@H]4O)c(OC)c(O)c3c(=O)c2OC)cc1O` [CENTAUREIN] gave a residual activity [2] of 91.7%.

For `OCCN(CCO)c1nc(N2CCCCC2)c2nc(N(CCO)CCO)nc(N3CCCCC3)c2n1` [DIPYRIDAMOLE], the residual activity [2] was 89.24%.

`COc1cc(O)c2c(=O)cc(C)oc2c1CC=C(C)C` [HETEROPEUCENIN, METHYL ETHER] was tested, and the residual activity [2] was 110.3%.

For `CC1=C(C(=O)O)N2C(=O)[C@@H](NC(=O)[C@H](N)C3=CCC=CC3)[C@H]2SC1` [CEPHRADINE], the residual activity [2] was 100.4%.

`CCCCC(CC)CN=C(N)N=C(N)NCCCCCCNC(N)=NC(N)=NCC(CC)CCCC.Cl` (centres undefined) [ALEXIDINE HYDROCHLORIDE] gave a residual activity [1] of 69.95%.

`O=C(O)CCc1nc(-c2ccccc2)c(-c2ccccc2)o1` [OXAPROZIN] gave a residual activity [2] of 71.47%.

With `CC(=O)Oc1ccc2c(c1)CC[C@@H]1[C@@H]2CC[C@]2(C)[C@@H](O)CC[C@@H]12` [ESTRADIOL ACETATE] the residual activity [2] was 101%.

In the case of `CN1[C@@H]2CC[C@H]1C[C@@H](OC(=O)[C@H](CO)c1ccccc1)C2` [HYOSCYAMINE], the residual activity [1] is reported as 97.76%.

With `CCCCC1C(=O)N(c2ccccc2)N(c2ccccc2)C1=O` [PHENYLBUTAZONE] the residual activity [2] was 62.24%.

With `CC(=O)[C@H]1CC[C@H]2[C@@H]3CC=C4C[C@@H](O)CC[C@]4(C)[C@H]3CC[C@]12C` [PREGNENOLONE] the residual activity [2] was 110.4%.

`CN(C)CCOC(C)(c1ccccc1)c1ccccn1.O=C(O)CCC(=O)O` (centres undefined) [DOXYLAMINE SUCCINATE] showed a residual activity [2] of 108.8%.

Work on `CC/C(=C(/CC)c1ccc(O)cc1)c1ccc(O)cc1` [DIETHYLSTILBESTROL] yielded a residual activity [2] of 45.56%.

`COC1=C[C@@H](C)[C@@H]2C[C@H]3OC(=O)C[C@H]4C(C)=C(OC)C(=O)[C@H]([C@@]2(C)C1=O)[C@@]34C` [QUASSIN] showed a residual activity [2] of 100.5%.

Work on `COc1ccc2c(c1)O[C@H]1c3ccc(OC)cc3OC[C@@H]21` [HOMOPTEROCARPIN] yielded a residual activity [2] of 109.3%.

`CC1(C)OC(=O)NC1=O` [DIMETHADIONE] gave a residual activity [2] of 109.1%.

`COc1ccc(-c2cc(=O)c3c(OC)c(OC)c(OC)c(OC)c3o2)cc1OC` [NOBILETIN] gave a residual activity [2] of 133.3%.

`CC(=O)Oc1c(C)c(C)c2c(c1C)CCC(C)(CCCC(C)CCCC(C)CCCC(C)C)O2` (stereo not drawn) [alpha-TOCHOPHERYL ACETATE] gave a residual activity [2] of 93.84%.

For `C[C@@H]1C[C@H]2[C@@H]3CCC4=CC(=O)C=C[C@]4(C)[C@@]3(F)[C@@H](O)C[C@]2(C)[C@@]1(O)C(=O)CO` [DEXAMETHASONE], the residual activity [2] was 103.9%.

`CC(=O)O[C@H]1C(=O)[C@@]2(C)[C@H]([C@H](OC(=O)c3ccccc3)[C@]3(O)C[C@H](OC(=O)[C@H](O)[C@@H](NC(=O)c4ccccc4)c4ccccc4)C(C)=C1C3(C)C)[C@]1(OC(C)=O)CO[C@@H]1C[C@@H]2O` [PACLITAXEL] was tested, and the residual activity [2] was 52.9%.

Work on `CC(=O)Oc1ccc2c(c1)CC[C@@H]1[C@@H]2CC[C@]2(C)[C@@H](OC(C)=O)CC[C@@H]12` yielded a residual activity [2] of 113.7%.

For `CN(C)CCC=C1c2ccccc2COc2ccccc21.Cl` [DOXEPIN HYDROCHLORIDE], the residual activity [2] was 101.8%.

`C=C1CC[C@H](O)C/C1=C/C=C1\CCC[C@]2(C)[C@@H]([C@H](C)/C=C/[C@H](C)C(C)C)CC[C@@H]12` [ERGOCALCIFEROL] gave a residual activity [2] of 28.81%.

`CC(=O)Oc1ccccc1C(=O)O` [ASPIRIN] showed a residual activity [2] of 96.37%.

Compound `O=P(O)(O)O.c1ccc(CN(CC2=NCCN2)c2ccccc2)cc1` [ANTAZOLINE PHOSPHATE] has a residual activity [2] of 97.11%.

`CCC(=O)O[C@H]1CC[C@H]2[C@@H]3CCc4cc(O)ccc4[C@H]3CC[C@]12C` [ESTRADIOL PROPIONATE] showed a residual activity [2] of 111.9%.

Work on `CC(=O)O[C@]1(C(C)=O)CC[C@H]2[C@@H]3C=C(Cl)C4=CC(=O)[C@@H]5C[C@@H]5[C@]4(C)[C@H]3CC[C@@]21C` [CYPROTERONE ACETATE] yielded a residual activity [2] of 103.2%.

With `O=c1[nH]c2ccccc2n1CCCN1CCC(n2c(=O)[nH]c3cc(Cl)ccc32)CC1` [DOMPERIDONE] the residual activity [2] was 111%.

`COc1cc(O)cc(/C=C/c2ccccc2)c1` [PINOSYLVIN METHYL ETHER] was tested, and the residual activity [2] was 91.5%.

`CCCCCCCCCCCCC[N+](C)(C)Cc1ccccc1.[Cl-]` [BENZALKONIUM CHLORIDE] showed a residual activity [1] of 78.42%.

Compound `CC(=O)OCC(=O)[C@H]1CC[C@H]2[C@@H]3CCC4=CC(=O)CC[C@]4(C)[C@H]3CC[C@]12C` [DESOXYCORTICOSTERONE ACETATE] has a residual activity [2] of 88.97%.

Work on `COc1ccc(/C=C/c2cc(O)cc(O)c2)cc1` [RESVERATROL 4'-METHYL ETHER] yielded a residual activity [2] of 135%.

For `COc1ccc(C(=O)O[C@@H]2CC[C@@]3(C)[C@@H]4CC[C@H]5[C@]6(O)C[C@H](O)[C@@]7(O)[C@@H](CN8C[C@@H](C)CC[C@H]8[C@@]7(C)O)[C@]6(O)C[C@@]53O[C@@]42O)cc1OC.O=S(=O)(O)O`, the residual activity [2] was 91.85%.

In the case of `CCOc1ccc(Cc2nccc3cc(OCC)c(OCC)cc23)cc1OCC.Cl` [ETHAVERINE HYDROCHLORIDE], the residual activity [2] is reported as 156.2%.

For `COc1ccc(-c2cc(=O)c3c(OC)c(OC)c(OC)c(OC)c3o2)cc1` [TANGERETIN], the residual activity [2] was 175%.

For `CCOC(=O)C1=C(C)NC(C)=C(C(=O)OC)C1c1cccc([N+](=O)[O-])c1` (centres undefined) [NITRENDIPINE], the residual activity [2] was 77.72%.

For `CN[C@@H](C)[C@H](O)c1ccccc1.Cl` [EPHEDRINE HYDROCHLORIDE], the residual activity [2] was 105.1%.

In the case of `C[C@H]1c2cccc(O)c2C(=O)C2=C(O)[C@]3(O)C(=O)C(C(N)=O)=C(O)[C@@H](N(C)C)[C@@H]3[C@@H](O)[C@@H]21.Cl` [DOXYCYCLINE HYDROCHLORIDE], the residual activity [2] is reported as 106%.

Compound `Clc1ccccc1C(c1ccccc1)(c1ccccc1)n1ccnc1` [CLOTRIMAZOLE] has a residual activity [2] of 105.9%.

Work on `O=C(CCCN1CC=C(n2c(=O)[nH]c3ccccc32)CC1)c1ccc(F)cc1` [DROPERIDOL] yielded a residual activity [2] of 147.6%.

`CN1C[C@H](CNC(=O)OCc2ccccc2)C[C@@H]2c3cccc4c3c(cn4C)C[C@H]21` [METERGOLINE] showed a residual activity [2] of 93.79%.
